From patent publication US20260176266A1, “PIPERIDINOPYRIMIDINE DERIVATIVE, PREPARATION METHOD THEREFOR AND USE THEREOF IN MEDICINE” (TUOJIE BIOTECH (SHANGHAI) CO., LTD., priority 2022, published 2026)

Assays:
T47D breast cancer cells = experiment: Inhibitory activity against tumor cells, CellTiter-Glo: T47D; assay type: cell-based; details: Homo sapiens
Experimental: (§1) MCF7 (ATCC #HTB-22) and T47D (ATCC #HTB-133) breast cancer cells and PANC-1 (ATCC #CRL-1469) pancreatic cancer cells were purchased from ATCC. MDA-MB-231 (Cobioer #CBP60382), HCC1806 (Cobioer #CBP60373), and MDA-MB-468 (Cobioer #CBP60387) breast cancer cells, HCT-116 (Cobioer #CBP60028) colorectal cancer cells, and OCI-AML-3 (Cobioer #CBP60817) and MV-4-11 (Cobioer #CBP60522) leukemia cells were purchased from Nanjing Cobioer Biosciences Co., Ltd.
(§2) OCI-AML-3 was cultured in RPMI 1640 medium with 20% FBS; HCC1806 and T47D were cultured in RPMI 1640 medium with 10% FBS; MCF7, MDA-MB-231, MDA-MB-468, and PANC-1 were cultured in DMEM medium with 10% FBS; MV-4-11 was cultured in IMDM medium with 20% FBS; HCT-116 was cultured in MC′5A medium with 10% FBS.
(§3) Palbociclib-resistant cells were constructed on MCF7 parent cells, designated MCF7 Palbo-R, and the culture conditions were consistent with those of the parent cells. All tumor cells were cultured in a cell incubator at 37° C. with 5% CO2. The cells were seeded at corresponding cell densities (600 cells/well for MDA-MB-231; 500 cells/well for MDA-MB-468, PANC-1, and HCT-116; 200 cells/well for MCF7 and HCC1806; 800 cells/well for MCF7 Palbo-R; 3000 cells/well for OCI-AML-3 and MV-4-11) in 384-well plates and cultured overnight in the incubator. On the second day, the cells were treated with compounds. The maximum compound concentration was 10 μM and was 3-fold diluted to obtain 9 concentrations, each tested in duplicate, and the final concentration of DMSO was 0.1%. The cells continued to be cultured in the incubator, with MDA-MB-231, PANC-1, MDA-MB-468, OCI-AML-3, and MV-4-11 being treated with drugs for 5 days and HCC1806, MCF7, MCF7 Palbo-R, and HCT116 being treated with drugs for 7 days. Cell viability was tested using the Celltiter Glo assay kit (Promega), and the testing method was consistent with the operational method provided by the kit. Readings were taken using an Envision multimode microplate reader. Data were processed using GraphPad Prism 8, and IC50 was calculated.
(§4) Y=Bottom+(Top−Bottom)/(1+10^((Log IC50−X)×HillSlope)). Calculation formula: • X: the logarithm of the compound concentration; Y: % inhibition.

[1] = system: HCC1806 breast cancer cells; experiment: Inhibitory activity against tumor cells, CellTiter-Glo: HCC1806; assay type: cell-based; details: Homo sapiens, 168 h, HCC1806, 7 days treatment
Experimental: as §1, §2
as §3, with “calculated. […]” for “calculated.”

OCI-AML-3 leukemia cells = experiment: Inhibitory activity against tumor cells, CellTiter-Glo: OCI-AML-3; assay type: cell-based; details: Homo sapiens, 120 h, OCI-AML-3, 5 days treatment
Experimental: as §1, §2
as §3, with “calculated. […]” for “calculated.”

MV-4-11 leukemia cells = experiment: Inhibitory activity against tumor cells, CellTiter-Glo: MV-4-11; assay type: cell-based; details: Homo sapiens, MV4-11, 120 h, MV-4-11, 5 days treatment
Experimental: as §1, §2
as §3, with “calculated. […]” for “calculated.”

CDK2/CyclinE1 = CDK2/CyclinE1 (Homo sapiens, UniProt P24941); experiment: ADP-Glo kinase assay, CDK2; assay type: biochemical; details: 1 nM CDK2/CyclinE1, 15 μM ATP (Km), Histone H1, 60 min; read-out: inhibitory activity (IC50, nM) CDK2
Experimental: (§5) The ADP-Glo kinase assay was used for testing the activity of CDKs. The compounds were diluted in 384-well plates using Echo. The starting concentration was 10 μM and was 3-fold diluted to obtain 10 concentration points, each tested in duplicate, and the final concentration of DMSO in the assay system was 1%. CDK solutions (the final concentrations were 16.5 nM CDK1/CyclinB, 1 nM CDK2/CyclinE1, 16.3 nM CDK4/CyclinD1, 11.5 nM CDK5/p25, 15.7 nM CDK6/CyclinD3, 80 nM CDK7/Cyclin H/MAT1, 15.3 nM CDK9/Cyclin T1, and 150 nM CDK12/CyclinK) prepared in assay buffer were added at 2.5 μL, and the enzymes and compounds were pre-incubated at room temperature for 10 min. ATP (the concentration was Km) & substrate solutions (20 μM ATP & 0.1 mg/mL Histone H1 Protein for CDK1/CyclinB, 15 μM ATP & 0.1 mg/mL Histone H1 Protein for CDK2/CyclinE1, 200 μM ATP & 0.2 mg/mL DYRKtide peptide for CDK4/CyclinD1, 10 μM ATP & 0.1 mg/mL Histone H1 Protein for CDK5/p25, 200 μM ATP & 0.1 mg/mL Histone H1 Protein for CDK6/CyclinD3, 70 μM ATP & 0.2 mg/mL MBP for CDK7/Cyclin H/MAT1, 60 μM ATP & 0.2 mg/mL PDKtide for CDK9/Cyclin T1, and 20 μM ATP & 80 μM pS7-CTD peptide for CDK12/CyclinK) prepared in assay buffer were added at 2.5 μL. After thorough mixing, the plates were incubated at room temperature, with CDK1/4/9/12/13 incubated for 120 min and CDK2/5/6/7 incubated for 60 min. ADP-Glo reagents were added at 4 μL, and the plates were incubated at room temperature for 40 min. Kinase detection reagents were added at 8 μL, and the plates were incubated at room temperature for 40 min. Readings were taken using an Envision multimode microplate reader. Data were processed using GraphPad Prism 8, and IC50 was calculated.
(§6) [formula] • X: the logarithm of the compound concentration; Y: % inhibition.

CDK4/CyclinD1 = CDK4/CyclinD1 (Homo sapiens, UniProt P11802); experiment: ADP-Glo kinase assay, CDK4; assay type: biochemical; details: 16.3 nM CDK4/CyclinD1, 200 μM ATP (Km), DYRKtide peptide, 120 min; read-out: inhibitory activity (IC50, nM) CDK4
Experimental: as §5, with “After thorough mixing, the plates were incubated at room temperature, with CDK1/4/9/12/13 incubated for 120 min and CDK2/5/6/7 incubated for 60 min. ADP-Glo reagents were added at 4 μL, and the plates were incubated at room temperature for 40 min. Kinase detection reagents were added at 8 μL, and the plates were incubated at room temperature for 40 min.” left out, “calculated. […]” for “calculated.”

CDK6/CyclinD3 = CDK6/CyclinD3 (Homo sapiens, UniProt Q00534); experiment: ADP-Glo kinase assay, CDK6; assay type: biochemical; details: 15.7 nM CDK6/CyclinD3, 200 μM ATP (Km), Histone H1, 60 min; read-out: inhibitory activity (IC50, nM) CDK 6
Experimental: as §5, with “After thorough mixing, the plates were incubated at room temperature, with CDK1/4/9/12/13 incubated for 120 min and CDK2/5/6/7 incubated for 60 min. ADP-Glo reagents were added at 4 μL, and the plates were incubated at room temperature for 40 min. Kinase detection reagents were added at 8 μL, and the plates were incubated at room temperature for 40 min.” left out, “calculated. […]” for “calculated.”

CDK7/Cyclin H/MAT1 = CDK7/Cyclin H/MAT1 (Homo sapiens, UniProt P50613); experiment: ADP-Glo kinase assay, CDK7; assay type: biochemical; details: for IC50: 80 nM CDK7/Cyclin H/MAT1, 70 μM ATP (Km), MBP, 60 min, read-out: inhibitory activity (IC50, nM) CDK7; for selectivity for CDK2/CDK7 compared with Janssen-01: from IC50 of Table 6, statement in words
Experimental: as §5, §6

CDK12/CyclinK = CDK12/CyclinK (Homo sapiens, UniProt Q9NYV4); experiment: ADP-Glo kinase assay, CDK12; assay type: biochemical; details: 150 nM CDK12/CyclinK, 20 μM ATP (Km), pS7-CTD peptide, 120 min; read-out: inhibitory activity (IC50, nM) CDK12
Experimental: as §5, with “After thorough mixing, the plates were incubated at room temperature, with CDK1/4/9/12/13 incubated for 120 min and CDK2/5/6/7 incubated for 60 min. ADP-Glo reagents were added at 4 μL, and the plates were incubated at room temperature for 40 min. Kinase detection reagents were added at 8 μL, and the plates were incubated at room temperature for 40 min.” left out, “calculated. […]” for “calculated.”

various tumor cell lines = experiment: Inhibitory activity against tumor cells, summary over the panel of Tables 4 and 5; assay type: cell-based; details: summary of Tables 4 and 5
Experimental: as §1, §2, §3, §4

Chain of CDK7/Cyclin H/MAT1 (P50613 whole entry, species assumed): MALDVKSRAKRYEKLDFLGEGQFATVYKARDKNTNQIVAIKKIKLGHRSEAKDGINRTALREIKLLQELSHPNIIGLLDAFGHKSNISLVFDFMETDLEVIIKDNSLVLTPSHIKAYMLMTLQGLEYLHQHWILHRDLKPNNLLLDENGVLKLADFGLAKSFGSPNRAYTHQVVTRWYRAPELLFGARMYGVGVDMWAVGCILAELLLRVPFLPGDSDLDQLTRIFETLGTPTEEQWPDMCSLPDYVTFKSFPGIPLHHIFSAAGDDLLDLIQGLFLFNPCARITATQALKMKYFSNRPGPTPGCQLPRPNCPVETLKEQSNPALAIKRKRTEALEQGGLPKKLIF
Chain of CDK7/Cyclin H/MAT1 (P51946 whole entry partner, species assumed): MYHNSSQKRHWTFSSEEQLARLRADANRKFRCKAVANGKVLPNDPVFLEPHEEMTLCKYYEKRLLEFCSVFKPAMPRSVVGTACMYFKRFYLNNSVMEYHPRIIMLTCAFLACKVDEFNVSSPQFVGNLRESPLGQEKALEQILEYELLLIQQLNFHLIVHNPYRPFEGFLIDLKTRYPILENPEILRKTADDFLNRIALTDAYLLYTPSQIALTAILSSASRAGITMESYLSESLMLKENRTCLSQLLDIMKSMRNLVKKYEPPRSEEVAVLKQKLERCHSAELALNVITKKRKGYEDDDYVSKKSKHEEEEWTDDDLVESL
Chain of CDK7/Cyclin H/MAT1 (P51948 whole entry partner, species assumed): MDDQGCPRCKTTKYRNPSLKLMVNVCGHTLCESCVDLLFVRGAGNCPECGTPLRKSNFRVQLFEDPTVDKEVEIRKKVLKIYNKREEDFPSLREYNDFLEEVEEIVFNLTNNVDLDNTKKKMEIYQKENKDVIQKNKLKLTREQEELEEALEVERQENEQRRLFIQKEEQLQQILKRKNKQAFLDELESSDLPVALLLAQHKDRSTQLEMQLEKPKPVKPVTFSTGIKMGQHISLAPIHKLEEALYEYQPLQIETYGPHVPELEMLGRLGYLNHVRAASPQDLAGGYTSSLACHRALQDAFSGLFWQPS
Chain of CDK4/CyclinD1 (P11802 whole entry, species assumed): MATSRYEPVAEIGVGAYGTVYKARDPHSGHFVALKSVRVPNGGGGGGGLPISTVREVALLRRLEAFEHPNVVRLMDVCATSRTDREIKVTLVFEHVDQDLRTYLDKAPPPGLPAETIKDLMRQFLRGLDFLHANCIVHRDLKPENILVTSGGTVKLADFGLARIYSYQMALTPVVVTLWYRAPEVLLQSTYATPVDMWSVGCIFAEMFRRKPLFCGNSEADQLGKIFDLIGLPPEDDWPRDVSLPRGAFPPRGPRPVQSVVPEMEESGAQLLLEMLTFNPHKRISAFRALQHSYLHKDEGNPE
Chain of CDK4/CyclinD1 (P24385 whole entry partner, species assumed): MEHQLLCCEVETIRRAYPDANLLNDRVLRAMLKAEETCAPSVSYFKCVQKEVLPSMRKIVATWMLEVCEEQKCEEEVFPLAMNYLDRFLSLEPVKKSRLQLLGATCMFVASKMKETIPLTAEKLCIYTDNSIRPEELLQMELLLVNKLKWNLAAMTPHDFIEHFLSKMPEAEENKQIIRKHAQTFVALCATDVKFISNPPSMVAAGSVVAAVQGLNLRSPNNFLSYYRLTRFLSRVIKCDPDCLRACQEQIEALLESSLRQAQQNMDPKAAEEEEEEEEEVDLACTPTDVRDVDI
Chain of CDK12/CyclinK (Q9NYV4 whole entry, species assumed): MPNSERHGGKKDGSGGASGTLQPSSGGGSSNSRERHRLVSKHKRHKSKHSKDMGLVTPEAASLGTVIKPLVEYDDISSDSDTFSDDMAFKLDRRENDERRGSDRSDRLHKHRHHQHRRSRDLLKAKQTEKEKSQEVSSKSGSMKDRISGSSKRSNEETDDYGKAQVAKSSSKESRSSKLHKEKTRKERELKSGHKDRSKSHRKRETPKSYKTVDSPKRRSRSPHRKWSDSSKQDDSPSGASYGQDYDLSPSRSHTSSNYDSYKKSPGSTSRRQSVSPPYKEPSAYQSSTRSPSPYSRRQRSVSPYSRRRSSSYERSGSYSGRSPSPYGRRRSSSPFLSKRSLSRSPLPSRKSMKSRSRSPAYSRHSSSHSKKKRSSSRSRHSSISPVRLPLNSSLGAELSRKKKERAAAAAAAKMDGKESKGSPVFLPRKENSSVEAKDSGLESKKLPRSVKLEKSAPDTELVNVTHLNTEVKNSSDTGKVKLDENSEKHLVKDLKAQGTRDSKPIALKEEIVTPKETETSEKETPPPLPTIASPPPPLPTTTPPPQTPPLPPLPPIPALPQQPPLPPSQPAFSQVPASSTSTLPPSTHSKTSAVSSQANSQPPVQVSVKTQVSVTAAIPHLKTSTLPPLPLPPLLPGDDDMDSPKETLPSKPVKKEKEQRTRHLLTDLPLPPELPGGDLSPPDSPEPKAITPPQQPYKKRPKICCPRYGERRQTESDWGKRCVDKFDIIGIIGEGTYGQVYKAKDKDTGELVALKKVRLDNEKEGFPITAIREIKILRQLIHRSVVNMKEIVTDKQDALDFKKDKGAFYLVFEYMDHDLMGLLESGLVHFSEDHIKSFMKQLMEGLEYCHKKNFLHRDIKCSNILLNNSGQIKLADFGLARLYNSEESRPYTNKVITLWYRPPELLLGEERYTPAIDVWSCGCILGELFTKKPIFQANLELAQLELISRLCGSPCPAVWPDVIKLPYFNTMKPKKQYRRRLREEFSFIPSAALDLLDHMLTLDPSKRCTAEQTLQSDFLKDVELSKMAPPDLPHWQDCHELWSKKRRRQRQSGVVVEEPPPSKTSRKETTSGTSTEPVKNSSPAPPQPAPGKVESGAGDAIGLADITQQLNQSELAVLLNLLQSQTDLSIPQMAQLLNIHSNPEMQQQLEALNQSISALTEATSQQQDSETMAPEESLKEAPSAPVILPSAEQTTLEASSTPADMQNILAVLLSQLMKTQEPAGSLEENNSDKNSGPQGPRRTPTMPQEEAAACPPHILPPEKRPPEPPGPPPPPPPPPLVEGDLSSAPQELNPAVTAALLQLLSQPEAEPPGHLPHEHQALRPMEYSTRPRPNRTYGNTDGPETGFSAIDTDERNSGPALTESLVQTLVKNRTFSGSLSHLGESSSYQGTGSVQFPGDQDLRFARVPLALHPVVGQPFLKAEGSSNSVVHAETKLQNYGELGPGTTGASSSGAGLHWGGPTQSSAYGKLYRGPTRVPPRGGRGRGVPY
Chain of CDK12/CyclinK (O75909 whole entry partner, species assumed): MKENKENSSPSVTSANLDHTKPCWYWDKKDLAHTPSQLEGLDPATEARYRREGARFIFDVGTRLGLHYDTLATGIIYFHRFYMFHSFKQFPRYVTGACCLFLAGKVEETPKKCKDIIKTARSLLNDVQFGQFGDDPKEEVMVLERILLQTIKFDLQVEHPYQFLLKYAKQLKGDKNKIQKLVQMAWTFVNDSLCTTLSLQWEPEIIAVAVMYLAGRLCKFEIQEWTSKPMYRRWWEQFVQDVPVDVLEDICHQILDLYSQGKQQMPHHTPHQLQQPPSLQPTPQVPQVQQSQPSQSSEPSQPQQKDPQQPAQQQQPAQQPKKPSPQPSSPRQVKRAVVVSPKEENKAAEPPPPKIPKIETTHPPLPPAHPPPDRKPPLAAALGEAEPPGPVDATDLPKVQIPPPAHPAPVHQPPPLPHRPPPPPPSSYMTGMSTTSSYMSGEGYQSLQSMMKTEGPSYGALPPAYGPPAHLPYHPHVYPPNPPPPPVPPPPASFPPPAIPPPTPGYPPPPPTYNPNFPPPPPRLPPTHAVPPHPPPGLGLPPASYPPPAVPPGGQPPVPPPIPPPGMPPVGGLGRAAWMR
Chain of CDK6/CyclinD3 (Q00534 whole entry, species assumed): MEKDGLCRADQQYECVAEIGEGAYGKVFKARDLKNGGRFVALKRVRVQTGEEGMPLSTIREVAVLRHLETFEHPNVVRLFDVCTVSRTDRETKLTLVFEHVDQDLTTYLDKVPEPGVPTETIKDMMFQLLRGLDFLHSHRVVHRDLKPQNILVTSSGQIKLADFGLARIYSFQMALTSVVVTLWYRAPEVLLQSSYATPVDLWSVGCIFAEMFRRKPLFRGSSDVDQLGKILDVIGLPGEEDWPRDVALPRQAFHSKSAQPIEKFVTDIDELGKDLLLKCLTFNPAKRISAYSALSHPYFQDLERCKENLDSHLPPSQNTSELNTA
Chain of CDK6/CyclinD3 (P30281 whole entry partner, species assumed): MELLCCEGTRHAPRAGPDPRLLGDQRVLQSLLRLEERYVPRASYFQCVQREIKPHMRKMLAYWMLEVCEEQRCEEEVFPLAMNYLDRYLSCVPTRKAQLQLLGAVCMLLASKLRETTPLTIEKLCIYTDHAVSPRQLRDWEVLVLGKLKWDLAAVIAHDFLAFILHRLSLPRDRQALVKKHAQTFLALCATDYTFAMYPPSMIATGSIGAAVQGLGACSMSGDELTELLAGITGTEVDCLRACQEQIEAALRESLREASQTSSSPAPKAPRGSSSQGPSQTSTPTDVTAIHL

| IC50 (T47D breast cancer cells) [µM] | IC50 [1] [µM] | IC50 (OCI-AML-3 leukemia cells) [µM] | IC50 (MV-4-11 leukemia cells) [µM] | IC50 (CDK2/CyclinE1) [nM] | IC50 (CDK4/CyclinD1) [nM] | IC50 (CDK6/CyclinD3) [nM] | IC50 (CDK7/Cyclin H/MAT1) [nM] | IC50 (CDK12/CyclinK) [nM] | SMILES | selectivity for CDK2/CDK7 compared with Janssen-01 (CDK7/Cyclin H/MAT1) | inhibitory activity against the various tumor cell lines (in words) (various tumor cell lines) |
| --- | --- | --- | --- | --- | --- | --- | --- | --- | --- | --- | --- |
| 0.0222 | 0.0237 | 0.0334 | 0.0191 | 1900 | > 10000 | > 10000 | 28.4 | > 10000 | C[C@H](Nc1ncc2c(n1)CN(C(=O)N[C@H](CN(C)C)c1ccccc1)[C@H](C)C2)c1ccccn1 [Example 6, (R)—N—((S)-2-(Dimethylamino)-1-phenylethyl)-6-methyl-2-(((S)-1-(pyridin-2-yl)ethyl)amino)-5,8-dihydropyrido[3,4-d]pyrimidine-7(6H)-carboxamide] | significantly better selectivity for CDK2/CDK7 than Janssen-01 | high inhibitory activity |
| 0.031 | 0.0286 | 0.0332 | 0.0182 | 2330 | > 10000 | > 10000 | 21.9 | > 10000 | C[C@@H]1Cc2cnc(NCc3ccn(C)n3)nc2CN1C(=O)N[C@H](CN(C)C)c1ccccc1 [Example 2, (R)—N—((S)-2-(Dimethylamino)-1-phenylethyl)-6-methyl-2-(((1-methyl-TH-pyrazol-3-yl)methyl)amino)-5,8-dihydropyrido[3,4-d]pyrimidine-7(6H)-carboxamide] | significantly better selectivity for CDK2/CDK7 than Janssen-01 | high inhibitory activity |
